# Data taken from US20150004134A1, “TREATMENT OF CANCER WITH HETEROCYCLIC INHIBITORS OF GLUTAMINASE” (Calithera Biosciences, Inc., priority 2012, published 2015).
# Like-named read-outs stand apart in the source and are kept apart here.
# Tested on: P493-6 (myc "on") cells
# Test: Cell Proliferation Assay
# Type: cell-based
# How it was run: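 P493-6 cells with myc on, 10,000 per well in RPMI/10% FBS, exposed to serially diluted compound (0.5% DMSO final) for 72 h at 37 °C, 5% CO2. Antiproliferative effect read by Cell Titer Glo luminescence or Viacount FACS viability count.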
# [1] = P493-6, 72 h, read-out: Cell prolif P493 72 h IC50, P493 cells, 72 h
# [2] = P493-6, 72 h, read-out: Cell prolif P493 72 h IC50, P493-6 cells, 72 h
SMILES,IC50 [1],other results
O=C(Cc1ccccc1)Nc1nnc(CCCCc2nnc(NC(=O)C(O)(CO)c3ccccc3)s2)s1 (stereo not drawn) [Compound 280],230 nM,–
O=C(Cc1ccccc1Br)Nc1nnc(CCCCc2nnc(NC(=O)Cc3ccccc3Br)s2)s1 [Compound 282],370 nM,–
O=C(Cc1ccccc1Br)Nc1nnc(CCSCCc2nnc(NC(=O)Cc3ccccc3Br)s2)s1 [Compound 283],740 nM,–
O=C(Cc1cccc(-n2cccn2)c1)Nc1nnc(CCCCc2nnc(NC(=O)Cc3cccc(-n4cccn4)c3)s2)s1 [Compound 285],140 nM,–
O=C(Cc1cccc(CN2CCNCC2)c1)Nc1nnc(CCCCc2nnc(NC(=O)Cc3cccc(CN4CCNCC4)c3)s2)s1 [Compound 286],6400 nM,–
O=C(Nc1nnc(CCCCc2nnc(NC(=O)C(O)c3ccccc3Br)s2)s1)C(O)c1ccccc1Br (stereo not drawn) [Compound 287],1300 nM,–
O=C(Nc1nnc(CCCCc2nnc(NC(=O)C(O)c3cccc(Br)c3)s2)s1)C(O)c1cccc(Br)c1 (stereo not drawn) [Compound 288],28 nM,–
O=C(Cc1ccccc1)Nc1nnc(CCCCc2nnc(NC(=O)[C@H]3CCCC[C@@H]3C(=O)c3ccccc3)s2)s1 [Compound 290],790 nM,–
CC(C)[C@H](N)C(=O)OCC(C(=O)Nc1nnc(CCCCc2nnc(NC(=O)C(COC(=O)[C@@H](N)C(C)C)c3ccccc3)s2)s1)c1ccccc1 (stereo partly drawn) [Compound 291],1800 nM,–
O=C(Cc1ccccc1F)Nc1nnc(CCCCc2nnc(NC(=O)Cc3ccccc3F)s2)s1 [Compound 292],12 nM,–
O=C(Cc1c(F)cccc1F)Nc1nnc(CCCCc2nnc(NC(=O)Cc3c(F)cccc3F)s2)s1 [Compound 293],40 nM,–
O=C(Cc1ccccc1F)Nc1nnc(CCSCCc2nnc(NC(=O)Cc3ccccc3F)s2)s1 [Compound 294],1100 nM,–
Cc1nccn1Cc1cccc(CC(=O)Nc2nnc(CCCCc3nnc(NC(=O)Cc4cccc(Cn5ccnc5C)c4)s3)s2)c1 [Compound 296],170 nM,–
O=C(Cc1c(F)cccc1F)Nc1nnc(CCSCCc2nnc(NC(=O)Cc3c(F)cccc3F)s2)s1 [Compound 298],5100 nM,–
CCOc1ccccc1CC(=O)Nc1nnc(CCCCc2nnc(NC(=O)Cc3ccccc3OCC)s2)s1 [Compound 300],160 nM,–
O=C(OCC(C(=O)Nc1nnc(CCCCc2nnc(NC(=O)C(COC(=O)C3CCN(C(=O)OCc4ccccc4)CC3)c3ccccc3)s2)s1)c1ccccc1)C1CCN(C(=O)OCc2ccccc2)CC1 (stereo not drawn) [Compound 301],230 nM,–
O=C(OCC(C(=O)Nc1nnc(CCCCc2nnc(NC(=O)C(COC(=O)C3CCNCC3)c3ccccc3)s2)s1)c1ccccc1)C1CCNCC1 (stereo not drawn) [Compound 302],870 nM,–
O=C(Cc1ccccc1)Nc1nnc(CCCCc2nnc(NC(=O)[C@@H]3CCCC[C@H]3C(O)c3ccccc3)s2)s1 (stereo partly drawn) [Compound 304],4900 nM,–
O=C(Cc1ccccc1)Nc1nnc(CCCCc2nnc(NC(=O)Cc3ccccc3)o2)o1 [Compound 305],102000 nM,–
O=C(Nc1nnc(CCCCc2nnc(NC(=O)C(O)c3cccc(Cl)c3)s2)s1)C(O)c1cccc(Cl)c1 (stereo not drawn) [Compound 306],66 nM,–
O=C(Cc1ccccn1)Nc1nnc(CCSCCc2nnc(NC(=O)Cc3ccccn3)s2)s1 [Compound 308],1200 nM,–
O=C(Cc1ccccc1)Nc1nnc(CCCCc2nnc(NC(=O)Cc3cccnc3)s2)s1 [Compound 309],180 nM,–
O=C(Cc1cccnc1)Nc1nnc(CCCCc2nnc(NC(=O)Cc3cccnc3)s2)s1 [Compound 311],22000 nM,–

SMILES,IC50 [1],other results
O=C(Cc1ccccc1)Nc1ccc(CCCCc2nnc(NC(=O)C(O)c3ccccc3)s2)nn1 (stereo not drawn) [Compound 315],35 nM,–
O=C(Cc1ccccc1)Nc1nnc(CCCCc2nnc(NC(=O)C(CO)c3ccccc3)s2)s1 (stereo not drawn) [Compound 316],75 nM,–
COc1cccc(C(O)C(=O)Nc2nnc(CCCCc3ccc(NC(=O)Cc4ccccc4)nn3)s2)c1 (stereo not drawn) [Compound 317],10 nM,–
COc1cc(C(O)C(=O)Nc2nnc(CCCCc3nnc(NC(=O)C(O)c4ccc(O)c(OC)c4)s3)s2)ccc1O (stereo not drawn) [Compound 319],10000 nM,–
COc1ccc(C(O)C(=O)Nc2nnc(CCCCc3nnc(NC(=O)C(O)c4ccc(OC)cc4)s3)s2)cc1 (stereo not drawn) [Compound 320],190 nM,–
C[C@H](O)C(=O)Nc1nnc(CCCCc2nnc(NC(=O)Cc3ccccc3)s2)s1 [Compound 321],2600 nM,–
C[C@@H](O)C(=O)Nc1nnc(CCCCc2nnc(NC(=O)Cc3ccccc3)s2)s1 [Compound 322],3000 nM,–
O=C(Cc1cccc2[nH]ccc12)Nc1nnc(CCCCc2nnc(NC(=O)Cc3cccc4[nH]ccc34)s2)s1 [Compound 323],200 nM,–
CC(C)(C)OC(=O)Nc1cccc(CC(=O)Nc2nnc(CCCCc3nnc(NC(=O)Cc4cccc(NC(=O)OC(C)(C)C)c4)s3)s2)c1 [Compound 327],150 nM,–
O=C(CCN1CCOCC1)OC(C(=O)Nc1nnc(CCCCc2nnc(NC(=O)C(OC(=O)CCN3CCOCC3)c3cccc(Cl)c3)s2)s1)c1cccc(Cl)c1 (stereo not drawn) [Compound 332],87 nM,–
O=C(Cc1ccccc1)Nc1nnc(CCCCc2nnc(NC(=O)Cc3ccccc3CO)s2)s1 [Compound 333],1600 nM,–
O=C(Cc1ccccc1)Nc1ccc(CCCCc2nnc(NC(=O)C(OC(=O)CCN3CCOCC3)c3ccccc3)s2)nn1 (stereo not drawn) [Compound 334],30 nM,–
O=C(Cc1ccccc1)Nc1ccc(CCCCc2nnc(NC(=O)Cc3cccc(Cl)c3)s2)nn1 [Compound 335],50 nM,–
NCc1cccc(CC(=O)Nc2nnc(CCCCc3ccc(NC(=O)Cc4ccccc4)nn3)s2)c1 [Compound 341],39 nM,–
Nc1nnc(CCCCc2ccc(NC(=O)Cc3ccccc3)nn2)s1 [Compound 342],2700 nM,–
COc1ccc(Cl)c(CC(=O)Nc2nnc(CCCCc3nnc(NC(=O)Cc4ccccc4)s3)s2)c1F [Compound 343],250 nM,–
COc1c(F)ccc(CC(=O)Nc2nnc(CCCCc3nnc(NC(=O)Cc4ccccc4)s3)s2)c1F [Compound 344],88 nM,–
O=C(Cc1ccccc1)Nc1nnc(CCCCc2nnc(NC(=O)Cc3c(Cl)ccc(O)c3F)s2)s1 [Compound 345],240 nM,–
O=C(Cc1ccccc1)Nc1nnc(CCCCc2nnc(NC(=O)Cc3ccc(F)c(O)c3F)s2)s1 [Compound 346],87 nM,–
O=C(Cc1ccccc1)Nc1nnc(CCSCCc2nnc(NC(=O)Cc3cccnc3)s2)s1 [Compound 347],710 nM,–
"Nc1ccc(CCCCc2nnc(NC(=O)Cc3ccccc3)s2)nn1 [Compound 348, N-(5-(4-(6-aminopyridazin-3-yl)butyl)-1,3,4-thiadiazol-2-yl)-2-phenylacetamide]",1700 nM,–
O=C(Cc1ccccc1)Nc1ccc(CCCCc2nnc(NC(=O)[C@@H](O)c3ccccc3)s2)nn1 [Compound 350],29 nM,–
O=C(Cc1ccccc1)Nc1ccc(CCCCc2nnc(NC(=O)NCc3ccccc3)s2)nn1 [Compound 352],130 nM,–

SMILES,IC50 [1],other results
O=C(CCN1CCOCC1)OC(C(=O)Nc1nnc(CCCCc2nnc(NC(=O)C(O)c3cccc(Cl)c3)s2)s1)c1cccc(Cl)c1 (stereo not drawn) [Compound 358],110 nM,–
O=C(Cc1ccccc1)Nc1nnc(CCSCCc2nnc(NC(=O)Cc3ccccn3)s2)s1 [Compound 359],910 nM,–
O=C(Cc1ccncc1)Nc1nnc(CCSCCc2nnc(NC(=O)Cc3ccncc3)s2)s1 [Compound 361],> 20000 nM,–
O=C(Cc1cccc(Cn2cccn2)c1)Nc1nnc(CCCCc2nnc(NC(=O)Cc3cccc(Cn4cccn4)c3)s2)s1 [Compound 362],54 nM,–
O=C(Cc1cccc(-n2ccnc2)c1)Nc1nnc(CCCCc2nnc(NC(=O)Cc3cccc(-n4ccnc4)c3)s2)s1 [Compound 363],> 20000 nM,–
CC(C)(C)OC(=O)NCc1cccc(CC(=O)Nc2ccc(CCCCc3nnc(NC(=O)Cc4ccccc4)s3)nn2)c1 [Compound 367],6 nM,–
CC(C)COC(=O)Nc1nnc(CCCCc2nnc(NC(=O)Cc3ccccc3)s2)s1 [Compound 370],700 nM,–
O=C(Cc1ccccc1)Nc1nnc(CCCCc2nnc(NC(=O)Oc3ccccc3)s2)s1 [Compound 371],–,"IC50 (P493-6, read-out: Cell prolif P493 72 h IC50, P493 cells, 72 h): 5200 nM"
O=C(Cc1ccccc1)Nc1nnc(CCSCc2nnc(NC(=O)Cc3cccc(Cl)c3)s2)s1 [Compound 372],150 nM,–
O=C(Cc1ccccc1)Nc1nnc(CCSCc2nnc(NC(=O)Cc3ccccn3)s2)s1 [Compound 373],280 nM,–
O=C(Cc1ccccc1)Nc1nnc(CCCCc2nnc(NC(=O)OCc3ccccc3)s2)s1 [Compound 374],470 nM,–
O=C(Cc1ccccc1)Nc1nnc(CCSCc2nnc(NC(=O)C(O)c3cccc(Cl)c3)s2)s1 (stereo not drawn) [Compound 376],91 nM,–
O=C(Cc1ccccc1)Nc1nnc(CCSCc2nnc(NC(=O)[C@@H](O)c3ccccc3)s2)s1 [Compound 377],100 nM,–
O=C(Cc1ccccc1)Nc1nnc(CCSCc2nnc(NC(=O)Cc3cccc(OCCN4CCOCC4)c3)s2)s1 [Compound 378],90 nM,–
COC(=O)Nc1nnc(CCCCc2nnc(NC(=O)Cc3ccccc3)s2)s1 [Compound 387],2300 nM,–
CCCCOC(=O)Nc1nnc(CCCCc2nnc(NC(=O)Cc3ccccc3)s2)s1 [Compound 388],750 nM,–
O=C(Cc1ccccc1)Nc1ccc(CCCCc2nnc(NC(=O)C(OC(=O)CCN3CCOCC3)c3cccc(Cl)c3)s2)nn1 (stereo not drawn) [Compound 389],32 nM,–
O=C(Cc1ccccc1)Nc1nnc(CCCCc2nnc(NC(=O)Cc3cccc(OCCN4CCOCC4)c3)s2)s1 [Compound 390],160 nM,–
CN(Cc1cccc(CC(=O)Nc2nnc(CCCCc3nnc(NC(=O)Cc4ccccc4)s3)s2)c1)C(=O)OC(C)(C)C [Compound 391],27 nM,–
O=C(Cc1ccccc1)Nc1nnc(CCCCc2nnc(NC(=O)Cc3cccc(Cn4cccn4)c3)s2)s1 [Compound 392],72 nM,–
CNCc1cccc(CC(=O)Nc2nnc(CCCCc3nnc(NC(=O)Cc4ccccc4)s3)s2)c1 [Compound 393],–,IC50 [2]: 900 nM
CN(C)Cc1cccc(CC(=O)Nc2nnc(CCCCc3nnc(NC(=O)Cc4ccccc4)s3)s2)c1 [Compound 394],–,IC50 [2]: 1200 nM
CN(Cc1cccc(CC(=O)Nc2nnc(CCCCc3ccc(NC(=O)Cc4ccccc4)nn3)s2)c1)C(=O)OC(C)(C)C [Compound 396],–,IC50 [2]: 5 nM
